Experiment [1] has as its target T1, human ERK2 (Homo sapiens, UniProt P28482).
T1 construct: recombinantly expressed as GST-tagged full-length protein purified from E. coli; GST; purchased Invitrogen PV3311; host or cells: E. coli
Nature of the experiment: LanthaScreen TR-FRET enzymatic assay, ERK2. Conditions: IC50 values of ERK2 biochemical activity; 5 μM ATP, 400 nM ATF2-GFP substrate. The essentials:
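IC50 values were fitted from percent of DMSO control using a 520/495 nm TR-FRET ratio with terbium anti-pATF2 (pThr71), read after an EDTA stop. The kinase reaction lasted one hour at room temperature, following 15-min compound pre-treatment. It contained 5 μM ATP, 400 nM ATF2-GFP substrate and 20 ng/ml in vitro-activated GST-ERK2.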
Background: TR-FRET usually uses a lanthanide donor and a delayed reading to cut background.

Experiment [2] deals with Colo205 cell line. Description: Colo205 cell proliferation assay (MTT assay, WST-8 readout). Format: cell-based. Conditions: Homo sapiens; IC50 values of growth inhibition in Colo 205 cells; 72 hours. The essentials: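 Growth-inhibition IC50 was derived from WST-8 absorbance at 450 nm (2 h development) after 72 h compound exposure at 37° C. Exposure used final 50 μM–0.005 μM compound in 0.5% DMSO. Colo205 cells had been plated at 5,000/well in RPMI-1640 plus 10% FBS and allowed 24 h to attach.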
Background: Formazan colour is commonly taken as a measure of viable cells.

The source of these data is patent US11242334B2, “Heterocyclic compounds as kinase inhibitors, compositions comprising the heterocyclic compound, and methods of use thereof” (JS INNOPHARM (SHANGHAI) LTD, priority 2017, dated 2022).

T1 sequence (P28482 whole entry): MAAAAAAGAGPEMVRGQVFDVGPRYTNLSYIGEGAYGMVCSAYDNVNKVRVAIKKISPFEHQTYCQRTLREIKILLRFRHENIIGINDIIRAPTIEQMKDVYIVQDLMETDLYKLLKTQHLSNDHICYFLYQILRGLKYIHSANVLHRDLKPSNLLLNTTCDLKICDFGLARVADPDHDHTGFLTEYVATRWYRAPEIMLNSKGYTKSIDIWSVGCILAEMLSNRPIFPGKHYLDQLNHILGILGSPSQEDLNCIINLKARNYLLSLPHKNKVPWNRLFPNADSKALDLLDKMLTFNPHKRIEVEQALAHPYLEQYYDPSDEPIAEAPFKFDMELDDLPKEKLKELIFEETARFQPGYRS

Turning to `Cc1cc(-c2n[nH]c3ccc(-c4ccn(Cc5ccc(F)c(OC(F)(F)F)c5)c(=O)c4)cc23)ccn1` [Example 78, 1-(4-fluoro-3-(trifluoromethoxy)benzyl)-4-(3-(2-methylpyridin-4-yl)-1H-indazol-5-yl)pyridin-2(1H)-one], the results for the IC50 in experiment [1] and in experiment [2] were 10 to 50 nM and 1000 to 5000 nM, respectively.

For `Cc1cc(-c2n[nH]c3ccc(-c4ccn(Cc5cc(F)cc(F)c5)c(=O)c4)cc23)ccn1` [Example 79, 1-(3,5-difluorobenzyl)-4-(3-(2-methylpyridin-4-yl)-1H-indazol-5-yl)pyridin-2(1H)-one], the figures for the IC50 in experiment [1] and in experiment [2] were < 10 nM and 500 to 1000 nM, respectively.

Turning to `Cc1cc(-c2n[nH]c3ccc(-c4ccn(Cc5cccc(C(F)(F)F)c5F)c(=O)c4)cc23)ccn1` [Example 80, 1-(2-fluoro-3-(trifluoromethyl)benzyl)-4-(3-(2-methylpyridin-4-yl)-1H-indazol-5-yl)pyridin-2(1H)-one], the results for the IC50 in experiment [1] and in experiment [2] were < 10 nM and 1000 to 5000 nM, respectively.

For the molecule `Cc1cc(-c2n[nH]c3ccc(-c4ccn(Cc5cccc(F)c5F)c(=O)c4)cc23)ccn1` [Example 81, 1-(2,3-difluorobenzyl)-4-(3-(2-methylpyridin-4-yl)-1H-indazol-5-yl)pyridin-2(1H)-one], the IC50 was < 10 nM in experiment [1] and ≤ 500 nM in experiment [2].

With `Cc1cc(-c2n[nH]c3ccc(-c4ccn(Cc5cccc(F)c5N)c(=O)c4)cc23)ccn1` [Example 82, 1-(2-amino-3-fluorobenzyl)-4-(3-(2-methylpyridin-4-yl)-1H-indazol-5-yl)pyridin-2(1H)-one], the IC50 in experiment [1] is < 10 nM; in experiment [2] it was 500 to 1000 nM.

Take `Cc1cc(-c2n[nH]c3ccc(-c4ccn(Cc5cccc(F)c5NS(C)(=O)=O)c(=O)c4)cc23)ccn1` [Example 83, N-(2-fluoro-6-((4-(3-(2-methylpyridin-4-yl)-1H-indazol-5-yl)-2-oxopyridin-1(2H)-yl)methyl)phenyl)methanesulfonamide]: the concentration for half-maximal inhibition (IC50) is < 10 nM in experiment [1] and 1000 to 5000 nM in experiment [2].

For the molecule `Cn1cc(-c2n[nH]c3ccc(-c4ccn(Cc5ccc(F)c(Cl)c5)c(=O)c4)cc23)cn1` [Example 84, 1-(3-chloro-4-fluorobenzyl)-4-(3-(1-methyl-1H-pyrazol-4-yl)-1H-indazol-5-yl)pyridin-2(1H)-one], the IC50 in experiment [1] was < 10 nM; in experiment [2], ≤ 500 nM.

For the molecule `Cn1cc(-c2n[nH]c3ccc(-c4ccn(Cc5cc(Br)ccc5F)c(=O)c4)cc23)cn1` [Example 85, 1-(5-bromo-2-fluorobenzyl)-4-(3-(1-methyl-1H-pyrazol-4-yl)-1H-indazol-5-yl)pyridin-2(1H)-one], the IC50 is < 10 nM in experiment [1] and ≤ 500 nM in experiment [2].

For the molecule `Cn1cc(-c2n[nH]c3ccc(-c4ccn(Cc5cc(F)cc(Br)c5)c(=O)c4)cc23)cn1` [Example 86, 1-(3-bromo-5-fluorobenzyl)-4-(3-(1-methyl-1H-pyrazol-4-yl)-1H-indazol-5-yl)pyridin-2(1H)-one], the IC50 in experiment [1] is < 10 nM; in experiment [2] it was ≤ 500 nM.

Turning to `Cc1cc(-c2n[nH]c3ccc(-c4ccn(Cc5cccc(F)c5NC(N)=O)c(=O)c4)cc23)ccn1` [Example 87, 1-(2-fluoro-6-((4-(3-(2-methylpyridin-4-yl)-1H-indazol-5-yl)-2-oxopyridin-1(2H)-yl)methyl)phenyl)urea], the IC50 was < 10 nM in experiment [1] and > 5000 nM in experiment [2].

Regarding `CC(=O)Nc1c(F)cccc1Cn1ccc(-c2ccc3[nH]nc(-c4ccnc(C)c4)c3c2)cc1=O` [Example 88, N-(2-fluoro-6-((4-(3-(2-methylpyridin-4-yl)-1H-indazol-5-yl)-2-oxopyridin-1(2H)-yl)methyl)phenyl)acetamide], the IC50 in experiment [1] is < 10 nM; in experiment [2], 1000 to 5000 nM.

Regarding `Cc1cc(-c2n[nH]c3ccc(-c4ccn(Cc5ccnc(C(F)(F)F)c5)c(=O)c4)cc23)ccn1` [Example 89, 4-(3-(2-methylpyridin-4-yl)-1H-indazol-5-yl)-1-((2-(trifluoromethyl)pyridin-4-yl)methyl)pyridin-2(1H)-one], the half-inhibitory concentration (IC50) in experiment [1] is < 10 nM; in experiment [2] it was ≤ 500 nM.

Consider `Cn1cc(-c2n[nH]c3ccc(-c4ccn(Cc5cccc(Br)c5)c(=O)c4)cc23)cn1` [Example 90, 1-(3-bromobenzyl)-4-(3-(1-methyl-1H-pyrazol-4-yl)-1H-indazol-5-yl)pyridin-2(1H)-one], for which the values for the half-inhibitory concentration (IC50) in experiment [1] and in experiment [2] were < 10 nM and ≤ 500 nM, respectively.

As to `Cn1cc(-c2n[nH]c3ccc(-c4ccn(Cc5cccc(C(F)(F)F)c5)c(=O)c4)cc23)cn1` [Example 91, 4-(3-(1-methyl-1H-pyrazol-4-yl)-1H-indazol-5-yl)-1-(3-(trifluoromethyl)benzyl)pyridin-2(1H)-one], the figures for the IC50 in experiment [1] and in experiment [2] were < 10 nM and 500 to 1000 nM, respectively.

As for `Cn1cc(-c2n[nH]c3ccc(-c4ccn(Cc5cc(F)cc(C(F)(F)F)c5)c(=O)c4)cc23)cn1` [Example 92, 1-(3-fluoro-5-(trifluoromethyl)benzyl)-4-(3-(1-methyl-1H-pyrazol-4-yl)-1H-indazol-5-yl)pyridin-2(1H)-one], the concentration for half-maximal inhibition (IC50) was < 10 nM in experiment [1] and ≤ 500 nM in experiment [2].

As to `Cn1cc(-c2n[nH]c3ccc(-c4ccn(Cc5cccc(I)c5)c(=O)c4)cc23)cn1` [Example 93, 1-(3-iodobenzyl)-4-(3-(1-methyl-1H-pyrazol-4-yl)-1H-indazol-5-yl)pyridin-2(1H)-one], the IC50 in experiment [1] is < 10 nM; in experiment [2] it was ≤ 500 nM.

Take `Cc1cc(-c2n[nH]c3ccc(-c4ccn(Cc5ccc6cn[nH]c6c5)c(=O)c4)cc23)ccn1` [Example 94, 1-((1H-indazol-6-yl)methyl)-4-(3-(2-methylpyridin-4-yl)-1H-indazol-5-yl)pyridin-2(1H)-one]: the results for the IC50 in experiment [1] and in experiment [2] were < 10 nM and 1000 to 5000 nM, respectively.

For the molecule `Cn1cc(-c2n[nH]c3ccc(-c4ccn(Cc5ccnc(C(F)(F)F)c5)c(=O)c4)cc23)cn1` [Example 95, 4-(3-(1-methyl-1H-pyrazol-4-yl)-1H-indazol-5-yl)-1-((2-(trifluoromethyl)pyridin-4-yl)methyl)pyridin-2(1H)-one], the IC50 in experiment [1] was < 10 nM; in experiment [2], 1000 to 5000 nM.

On to `CC(c1cc(F)cc(Br)c1)n1ccc(-c2ccc3[nH]nc(-c4cnn(C)c4)c3c2)cc1=O` (centres unmarked) [Example 96, 1-(1-(3-bromo-5-fluorophenyl)ethyl)-4-(3-(1-methyl-1H-pyrazol-4-yl)-1H-indazol-5-yl)pyridin-2(1H)-one], for which the IC50 in experiment [1] was < 10 nM; in experiment [2], 500 to 1000 nM.

With `CC(c1ccc(F)c(Cl)c1)n1ccc(-c2ccc3[nH]nc(-c4cnn(C)c4)c3c2)cc1=O` (centres unmarked) [Example 97, 1-(1-(3-chloro-4-fluorophenyl)ethyl)-4-(3-(1-methyl-1H-pyrazol-4-yl)-1H-indazol-5-yl)pyridin-2(1H)-one], the values for the IC50 in experiment [1] and in experiment [2] were 10 to 50 nM and 1000 to 5000 nM, respectively.

For the molecule `CNCC(c1cccc(Cl)c1)n1ccc(-c2ccc3[nH]nc(-c4cnn(C)c4)c3c2)cc1=O` (centres unmarked) [Example 98, 1-(1-(3-chlorophenyl)-2-(methylamino)ethyl)-4-(3-(1-methyl-1H-pyrazol-4-yl)-1H-indazol-5-yl)pyridin-2(1H)-one], the half-maximal inhibitory concentration (IC50) is < 10 nM in experiment [1] and ≤ 500 nM in experiment [2].

As to `CC(C)Oc1ccc(-c2n[nH]c3ccc(-c4ccn(Cc5cc(F)cc(Br)c5)c(=O)c4)cc23)cn1` [Example 99, 1-(3-bromo-5-fluorobenzyl)-4-(3-(6-isopropoxypyridin-3-yl)-1H-indazol-5-yl)pyridin-2(1H)-one], the IC50 in experiment [1] was < 10 nM; in experiment [2], 1000 to 5000 nM.

For the molecule `CC(C)Oc1ccc(-c2n[nH]c3ccc(-c4ccn([C@H](CO)c5ccc(Cl)c(F)c5)c(=O)c4)cc23)cn1` [Example 100], the IC50 in experiment [1] was 10 to 50 nM; in experiment [2], 1000 to 5000 nM.

Turning to `Cc1cc(-c2n[nH]c3ncc(-c4ccn([C@H](CO)c5ccc(F)c(Cl)c5)c(=O)c4)cc23)ccn1` [Example 101, (S)-1-(1-(3-chloro-4-fluorophenyl)-2-hydroxyethyl)-4-(3-(2-methylpyridin-4-yl)-1H-pyrazolo[3,4-b]pyridin-5-yl)pyridin-2(1H)-one], the IC50 in experiment [1] is < 10 nM; in experiment [2], ≤ 500 nM.

Take `CCOc1ccc(-c2n[nH]c3ccc(-c4ccn([C@H](CO)c5cc(F)cc(Br)c5)c(=O)c4)cc23)cn1` [Example 102, (S)-1-(1-(3-bromo-5-fluorophenyl)-2-hydroxyethyl)-4-(3-(6-ethoxypyridin-3-yl)-1H-indazol-5-yl)pyridin-2(1H)-one]: the values for the 50% inhibitory concentration (IC50) in experiment [1] and in experiment [2] were < 10 nM and ≤ 500 nM, respectively.

In the case of `COc1ccc(-c2n[nH]c3ccc(-c4ccn([C@H](CO)c5cc(F)cc(Br)c5)c(=O)c4)cc23)cn1` [Example 103, (S)-1-(1-(3-bromo-5-fluorophenyl)-2-hydroxyethyl)-4-(3-(6-methoxypyridin-3-yl)-1H-indazol-5-yl)pyridin-2(1H)-one], the IC50 in experiment [1] is < 10 nM; in experiment [2], ≤ 500 nM.

Take `Cc1cc(-c2n[nH]c3ncc(-c4ccn(Cc5ccnc(C(F)(F)F)c5)c(=O)c4)cc23)ccn1` [Example 104, 4-(3-(2-methylpyridin-4-yl)-1H-pyrazolo[3,4-b]pyridin-5-yl)-1-((2-(trifluoromethyl)pyridin-4-yl)methyl)pyridin-2(1H)-one]: the figures for the IC50 in experiment [1] and in experiment [2] were 10 to 50 nM and 500 to 1000 nM, respectively.

Consider `Cc1cc(-c2n[nH]c3ncc(-c4ccn(C(C)c5cc(F)cc(Br)c5)c(=O)c4)cc23)ccn1` (centres unmarked) [Example 105, 1-(1-(3-bromo-5-fluorophenyl)ethyl)-4-(3-(2-methylpyridin-4-yl)-1H-pyrazolo[3,4-b]pyridin-5-yl)pyridin-2(1H)-one], for which the figures for the IC50 in experiment [1] and in experiment [2] were < 10 nM and 500 to 1000 nM, respectively.

For orientation: IC50 means the point on the concentration scale where inhibition reaches its midpoint.
